Source: the Kinase Knowledgebase extract (Sharma et al. 2016)

Biological target: EGFR (UniProt P00533)
Conditions: not given

EGFR, sequence (P00533 whole entry, looked up): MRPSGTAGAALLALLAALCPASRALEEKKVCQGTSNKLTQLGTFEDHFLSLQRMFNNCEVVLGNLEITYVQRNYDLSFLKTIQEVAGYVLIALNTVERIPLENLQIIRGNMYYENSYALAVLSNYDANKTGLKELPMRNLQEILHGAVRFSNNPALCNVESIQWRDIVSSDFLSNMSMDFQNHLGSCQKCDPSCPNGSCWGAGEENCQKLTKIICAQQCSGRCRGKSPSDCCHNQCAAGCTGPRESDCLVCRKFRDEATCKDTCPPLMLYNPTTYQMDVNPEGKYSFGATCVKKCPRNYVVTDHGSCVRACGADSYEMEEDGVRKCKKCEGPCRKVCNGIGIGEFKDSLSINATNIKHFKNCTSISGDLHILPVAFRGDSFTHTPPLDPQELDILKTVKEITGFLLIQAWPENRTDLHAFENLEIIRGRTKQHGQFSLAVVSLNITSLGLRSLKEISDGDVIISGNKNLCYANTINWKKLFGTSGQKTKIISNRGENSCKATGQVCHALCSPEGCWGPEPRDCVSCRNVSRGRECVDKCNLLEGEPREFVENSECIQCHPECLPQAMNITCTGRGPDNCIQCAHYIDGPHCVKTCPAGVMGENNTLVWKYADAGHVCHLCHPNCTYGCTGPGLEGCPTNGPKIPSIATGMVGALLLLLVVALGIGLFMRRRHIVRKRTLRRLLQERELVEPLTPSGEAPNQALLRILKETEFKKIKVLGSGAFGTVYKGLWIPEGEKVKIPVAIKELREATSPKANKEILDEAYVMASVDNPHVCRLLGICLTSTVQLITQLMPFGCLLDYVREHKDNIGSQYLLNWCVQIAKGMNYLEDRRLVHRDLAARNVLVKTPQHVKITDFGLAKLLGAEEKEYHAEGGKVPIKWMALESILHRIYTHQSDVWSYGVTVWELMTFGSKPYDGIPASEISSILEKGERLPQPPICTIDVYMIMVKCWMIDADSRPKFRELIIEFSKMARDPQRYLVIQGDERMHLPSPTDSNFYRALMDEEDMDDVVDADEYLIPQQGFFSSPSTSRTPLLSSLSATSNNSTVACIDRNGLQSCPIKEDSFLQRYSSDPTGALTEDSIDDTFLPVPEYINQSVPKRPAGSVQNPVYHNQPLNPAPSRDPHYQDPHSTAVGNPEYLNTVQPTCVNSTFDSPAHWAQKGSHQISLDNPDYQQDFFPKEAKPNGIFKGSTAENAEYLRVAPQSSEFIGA

SMILES	IC50 [µM]
Cc1c(C)n(C)c2ncnc(Nc3cccc(Cl)c3)c12	0.45

Biological target: EGFR (mouse) (UniProt P00533)
Conditions: balb/mk

SMILES	IC50 [µM]
Clc1cccc(Nc2n[nH]c3ncnc(Oc4cccc(Cl)c4)c23)c1	> 50
O=[N+]([O-])c1cccc(-c2n[nH]c3ncnc(Nc4cccc(Cl)c4)c23)c1	> 50
Nc1ncnc2c1c(-c1ccccc1)nn2-c1ccccc1	> 50

Biological target: EGFR (mouse) (UniProt P00533)
Conditions: balb/c 3t3

SMILES	IC50 [µM]
Clc1cccc(Nc2n[nH]c3ncnc(Oc4cccc(Cl)c4)c23)c1	10
COc1cccc(Nc2n[nH]c3ncnc(Nc4cccc(Cl)c4)c23)c1	> 10
O=[N+]([O-])c1cccc(-c2n[nH]c3ncnc(Nc4cccc(Cl)c4)c23)c1	> 10
Nc1ccc(-c2n[nH]c3ncnc(Nc4cccc(Cl)c4)c23)cc1	> 10
COc1cccc(CNc2n[nH]c3ncnc(Nc4cccc(Cl)c4)c23)c1	> 10
Nc1cccc(-c2n[nH]c3ncnc(Nc4cccc(Cl)c4)c23)c1	> 10
Oc1ccc(Nc2n[nH]c3ncnc(Nc4cccc(Cl)c4)c23)cc1	> 10
c1ccc(Nc2ncnc3[nH]nc(Nc4ccccc4)c23)cc1	> 10
CC(C)(C)OC(=O)Nc1ccc(-c2n[nH]c3ncnc(Nc4cccc(Cl)c4)c23)cc1	> 10
Nc1ncnc2c1c(-c1ccccc1)nn2-c1ccccc1	> 10
Nc1nc(N)c2c(Nc3cccc(Cl)c3)n[nH]c2n1	> 10
Clc1cccc(Nc2n[nH]c3ncnc(Nc4ccccc4)c23)c1	> 10
Cc1cccc(Nc2ncnc3[nH]nc(Nc4cccc(Cl)c4)c23)c1	> 10
Clc1cccc(Nc2n[nH]c3ncnc(Nc4cccc(Br)c4)c23)c1	> 10
COc1ccc(CNc2n[nH]c3ncnc(Nc4cccc(Cl)c4)c23)cc1	> 10
Clc1cccc(Nc2ncnc3[nH]nc(NCc4ccccc4)c23)c1	> 10
Clc1cccc(Nc2n[nH]c3ncnc(NCc4ccccc4)c23)c1	> 10
Oc1ccc(-c2n[nH]c3ncnc(Nc4cccc(Cl)c4)c23)cc1	> 10
Clc1cccc(Nc2ncnc3[nH]nc(-c4ccccc4)c23)c1	> 10
Nc1ncnc2[nH]nc(Nc3cccc(Cl)c3)c12	> 10
Oc1cccc(Nc2n[nH]c3ncnc(Nc4cccc(Cl)c4)c23)c1	> 10
Oc1cccc(-c2n[nH]c3ncnc(Nc4cccc(Cl)c4)c23)c1	> 10
COc1ccc(-c2n[nH]c3ncnc(Nc4cccc(Cl)c4)c23)cc1	> 10
Clc1cccc(CNc2n[nH]c3ncnc(Nc4cccc(Cl)c4)c23)c1	> 10
